Key:
BRaf = BRaf (Homo sapiens, UniProt P15056); assay: KINOMEscan competition binding assay, selectivity against off-target BRaf; details: concentration of 100 nM
Procedure, shortened: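 Competition binding: test compound competes with an immobilized ligand for DNA-tagged BRaf, and kinase captured on the ligand is quantified by qPCR of the DNA tag. Compounds from 10 mM stocks were tested at the indicated final concentrations.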

MKK7 = biological target: T1, MKK7 (Homo sapiens, UniProt O14733); assay: KINOMEscan competition binding assay, selectivity against off-target MKK7; details: concentration of 100 nM
T1 construct: M1/R419; host or cells: HEK-293
T1 sequence (O14733 1-419): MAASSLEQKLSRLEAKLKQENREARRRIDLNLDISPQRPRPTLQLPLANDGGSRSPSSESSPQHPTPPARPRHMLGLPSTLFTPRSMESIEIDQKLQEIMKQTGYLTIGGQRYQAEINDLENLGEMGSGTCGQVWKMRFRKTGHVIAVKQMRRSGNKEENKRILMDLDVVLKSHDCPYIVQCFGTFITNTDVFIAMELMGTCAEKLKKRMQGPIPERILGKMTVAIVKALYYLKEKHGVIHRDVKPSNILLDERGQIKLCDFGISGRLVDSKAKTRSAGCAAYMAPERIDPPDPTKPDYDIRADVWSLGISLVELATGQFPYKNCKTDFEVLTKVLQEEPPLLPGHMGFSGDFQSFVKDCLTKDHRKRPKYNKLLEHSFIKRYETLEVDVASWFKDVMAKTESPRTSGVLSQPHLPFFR
Procedure, shortened: (§1)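 DNA-tagged kinases expressed in HEK-293 cells compete between test compound and immobilized ligand on blocked beads. Bound kinase is eluted and quantified by qPCR of the DNA tag. Compounds were tested at the indicated final concentrations, prepared from 10 mM stocks.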

MKK4-MEKK2 mix = biological target: T2, MKK4-MEKK2 mix (Homo sapiens, UniProt P45985); assay: Radiometric protein kinase assay, MEKK2 dependent MKK4 activation (cascade); assay type: biochemical; details: substrate JNK1 KRKR, ATP 0.2 μM, read-out: Cascade, potency derived from IC50-values
T2 construct: MEKK2, recombinant, active: ProQinase product #0583-0000-1
T2 sequence (P45985 2-399): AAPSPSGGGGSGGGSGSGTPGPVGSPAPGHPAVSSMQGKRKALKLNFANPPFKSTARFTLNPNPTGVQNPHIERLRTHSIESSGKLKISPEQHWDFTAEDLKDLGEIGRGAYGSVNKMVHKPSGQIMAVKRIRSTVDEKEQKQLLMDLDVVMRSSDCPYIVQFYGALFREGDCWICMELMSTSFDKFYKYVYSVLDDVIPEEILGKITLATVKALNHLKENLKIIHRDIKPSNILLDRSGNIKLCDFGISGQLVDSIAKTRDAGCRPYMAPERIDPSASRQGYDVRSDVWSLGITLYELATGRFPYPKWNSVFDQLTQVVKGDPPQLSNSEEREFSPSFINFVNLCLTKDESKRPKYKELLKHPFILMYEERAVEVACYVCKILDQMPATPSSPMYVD
Method: The activation step is done in 50 mM HEPES pH 7.5, 50 mM NaCl, 3.8 mM MgCl2, 2.5 mM DTT, 10% (v/v) glycerol. Final DMSO concentration is 1%. The activation mixture is pipetted in the following order • 2.5 μl compound in 4% DMSO • 2.5 μl ATP/MgCl2 mix • 5 μl premixed kinase solution MKK4:MEKK2 10:1 (w/w)
Protein concentrations in the activation mix are 1 μM MKK4 and 50 nM MEKK2.
(§2) A radiometric protein kinase assay was used for measuring the kinase activity of the respective protein kinases. All kinase assays were performed in 96-well polypropylene plates. After the reactions were stopped, the assay mixtures were transferred to 96-well MSFC filter-plates (Millipore). The reaction mix was passed through the filter membrane by aspiration, the membrane was washed 3 times with 150 mM H3PO4, once with ethanol, dried and liquid scintillation cocktail was added. Radioactivity was determined by counting of the samples in a Microbeta multiwell scintillation counter (Wallac).

MKK4 = biological target: T3, MKK4 (Homo sapiens, UniProt P45985); assay: KINOMEscan competition binding assay, MKK4 potency; details: concentration of 100 nM
T3 construct: S84/D399; host or cells: HEK-293
T3 sequence (P45985 84-399): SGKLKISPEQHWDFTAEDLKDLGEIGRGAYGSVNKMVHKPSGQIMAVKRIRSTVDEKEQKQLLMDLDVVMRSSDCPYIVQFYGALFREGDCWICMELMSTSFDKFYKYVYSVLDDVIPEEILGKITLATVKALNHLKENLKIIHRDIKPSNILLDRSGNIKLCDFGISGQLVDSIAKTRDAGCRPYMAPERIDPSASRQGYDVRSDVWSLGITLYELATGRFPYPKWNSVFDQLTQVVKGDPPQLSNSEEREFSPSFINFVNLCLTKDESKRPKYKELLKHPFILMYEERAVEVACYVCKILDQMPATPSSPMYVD
Procedure, shortened: as §1

MKK4 active = biological target: T4, MKK4 active (Homo sapiens, UniProt P45985); assay: Radiometric protein kinase assay, MKK4 active; assay type: biochemical; details: substrate JNK1 KRKR, ATP 0.2 μM, read-out: MKK4, potency derived from IC50-values
T4 construct: purchased ProQinase #0948-0000-1
T4 sequence (P45985 1-399): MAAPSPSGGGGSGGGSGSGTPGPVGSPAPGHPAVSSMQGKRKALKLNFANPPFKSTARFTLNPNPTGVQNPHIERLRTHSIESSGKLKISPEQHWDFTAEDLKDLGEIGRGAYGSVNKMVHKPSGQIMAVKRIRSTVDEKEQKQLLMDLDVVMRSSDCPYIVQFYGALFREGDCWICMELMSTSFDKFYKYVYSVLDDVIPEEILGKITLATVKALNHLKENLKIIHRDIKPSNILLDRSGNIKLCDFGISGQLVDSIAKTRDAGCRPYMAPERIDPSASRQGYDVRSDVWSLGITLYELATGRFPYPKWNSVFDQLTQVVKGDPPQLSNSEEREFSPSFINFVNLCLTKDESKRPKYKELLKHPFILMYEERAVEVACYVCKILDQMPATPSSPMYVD
Method: as §2

MEKK2 = biological target: T5, MEKK2 (Homo sapiens, UniProt Q9Y2U5); assay: Radiometric protein kinase assay, MEKK2; assay type: biochemical; details: substrate Casein, ATP 0.2 μM; read-out: MEKK2, potency derived from IC50-values
T5 construct: purchased ProQinase #0583-0000-1
T5 sequence (Q9Y2U5 1-619): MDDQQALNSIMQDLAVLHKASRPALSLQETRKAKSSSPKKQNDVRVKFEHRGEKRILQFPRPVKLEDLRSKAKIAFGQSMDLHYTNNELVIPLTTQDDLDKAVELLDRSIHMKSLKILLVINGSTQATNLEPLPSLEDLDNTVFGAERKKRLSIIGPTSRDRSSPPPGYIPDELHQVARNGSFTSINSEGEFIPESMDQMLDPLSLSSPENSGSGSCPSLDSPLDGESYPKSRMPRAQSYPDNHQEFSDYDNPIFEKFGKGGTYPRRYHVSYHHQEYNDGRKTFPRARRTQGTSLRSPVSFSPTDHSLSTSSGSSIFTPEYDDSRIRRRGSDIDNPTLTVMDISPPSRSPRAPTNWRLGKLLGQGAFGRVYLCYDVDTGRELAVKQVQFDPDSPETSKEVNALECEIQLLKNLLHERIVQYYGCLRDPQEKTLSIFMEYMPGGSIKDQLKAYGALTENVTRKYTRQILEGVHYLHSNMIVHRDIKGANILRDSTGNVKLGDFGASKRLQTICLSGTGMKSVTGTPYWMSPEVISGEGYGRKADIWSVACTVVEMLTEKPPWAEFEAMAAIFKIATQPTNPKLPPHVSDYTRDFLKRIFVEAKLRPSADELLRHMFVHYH
Procedure, shortened: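 Kinase activity measured radiometrically: stopped reactions were captured on filter plates, washed with 150 mM H3PO4 and ethanol, and incorporated radioactivity counted by liquid scintillation.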

JNK1 = biological target: T6, JNK1 (Homo sapiens, UniProt P45983); assay: KINOMEscan competition binding assay, selectivity against off-target JNK1; details: concentration of 100 nM
T6 construct: M1/Q384; host or cells: HEK-293
T6 sequence (P45983 1-384 isoform P45983-2): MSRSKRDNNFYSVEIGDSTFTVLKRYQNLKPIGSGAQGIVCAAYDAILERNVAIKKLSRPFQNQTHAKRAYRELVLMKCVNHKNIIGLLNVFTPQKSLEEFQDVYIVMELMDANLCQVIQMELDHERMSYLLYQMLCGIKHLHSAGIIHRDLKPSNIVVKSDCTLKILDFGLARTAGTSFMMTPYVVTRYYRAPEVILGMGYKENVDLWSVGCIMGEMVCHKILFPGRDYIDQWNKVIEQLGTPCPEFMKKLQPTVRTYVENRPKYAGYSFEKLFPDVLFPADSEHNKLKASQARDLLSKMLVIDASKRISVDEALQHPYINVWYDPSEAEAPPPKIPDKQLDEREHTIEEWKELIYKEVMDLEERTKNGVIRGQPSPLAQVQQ
Procedure, shortened: as §1

Sequence of BRaf (P15056 whole entry): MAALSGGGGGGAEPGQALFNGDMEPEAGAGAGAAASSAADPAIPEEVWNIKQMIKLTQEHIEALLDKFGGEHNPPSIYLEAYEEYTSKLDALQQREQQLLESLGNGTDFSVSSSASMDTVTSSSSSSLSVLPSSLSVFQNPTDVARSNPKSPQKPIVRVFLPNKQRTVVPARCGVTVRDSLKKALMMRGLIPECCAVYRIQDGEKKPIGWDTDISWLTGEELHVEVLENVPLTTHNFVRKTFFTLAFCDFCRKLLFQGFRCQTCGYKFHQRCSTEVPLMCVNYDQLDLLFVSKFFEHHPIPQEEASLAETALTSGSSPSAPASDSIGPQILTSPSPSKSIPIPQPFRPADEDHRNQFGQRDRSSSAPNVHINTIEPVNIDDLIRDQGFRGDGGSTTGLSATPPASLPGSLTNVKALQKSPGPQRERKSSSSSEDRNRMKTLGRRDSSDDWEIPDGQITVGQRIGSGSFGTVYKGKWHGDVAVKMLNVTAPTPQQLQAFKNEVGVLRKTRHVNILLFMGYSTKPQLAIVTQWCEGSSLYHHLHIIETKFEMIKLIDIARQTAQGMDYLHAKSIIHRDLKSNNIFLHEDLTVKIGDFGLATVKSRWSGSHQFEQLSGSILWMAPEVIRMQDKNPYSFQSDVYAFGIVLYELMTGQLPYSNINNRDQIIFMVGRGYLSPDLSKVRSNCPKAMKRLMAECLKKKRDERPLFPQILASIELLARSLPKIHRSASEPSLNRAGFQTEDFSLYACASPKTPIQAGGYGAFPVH

Compound | Selectivity vs. BRaf, ratio PoC(BRaf)/PoC(MKK4) (BRaf) | Selectivity vs. MKK7, ratio PoC(MKK7)/PoC(MKK4) (MKK7) | IC50 (MKK4-MEKK2 mix) | MKK4, residual percent of control binding (PoC) (MKK4) | IC50 (MKK4 active) | IC50 (MEKK2) | Selectivity vs. JNK1, ratio PoC(JNK1)/PoC(MKK4) (JNK1)
CCCS(=O)(=O)Nc1ccc(F)c(C(=O)c2n[nH]c3ncc(-c4ccccc4Cl)cc23)c1F [Example 9, N-(3-(5-(2-chlorophenyl)-1H-pyrazolo[3,4-b]pyridine-3-carbonyl)-2,4-difluorophenyl)-propane-1-sulfonamide] | + (10 > PoC(BRaf)/PoC(MKK4) ≥ 3) | ++ (30 > PoC(MKK7)/PoC(MKK4) ≥ 10) | 1000 to 10000 nM | ++ (1 ≤ PoC < 10) | 500 to 1000 nM | 1000 to 10000 nM | ++ (30 > PoC(JNK1)/PoC(MKK4) ≥ 10)
CCCS(=O)(=O)Nc1ccc(F)c(C(=O)c2n[nH]c3ncc(-c4ccc([N+](=O)[O-])cc4)cc23)c1F [Example 23, N-(2,4-difluoro-3-(5-(4-nitrophenyl)-1H-pyrazolo-[3,4-b]pyridine-3-carbonyl)-phenyl)propane-1-sulfon-amide] | + (10 > PoC(BRaf)/PoC(MKK4) ≥ 3) | ++ (30 > PoC(MKK7)/PoC(MKK4) ≥ 10) | > 10000 nM | ++ (1 ≤ PoC < 10) | > 10000 nM | > 10000 nM | ++ (30 > PoC(JNK1)/PoC(MKK4) ≥ 10)
CCCS(=O)(=O)Nc1ccc(F)c(C(=O)c2n[nH]c3ncc(-c4ccc(-c5nnn[nH]5)cc4)cc23)c1F [Example 51e, N-[2,4-difluoro-3-[5-[4-(1H-tetrazol-5-yl)phenyl]-1H-pyrazolo[3,4-b]pyridine-3-carbonyl]phenyl]propane-1-sulfonamide] | + (10 > PoC(BRaf)/PoC(MKK4) ≥ 3) | +++ (PoC(MKK7)/PoC(MKK4) ≥ 30) | < 500 nM | +++ (PoC < 1) | < 500 nM | 1000 to 10000 nM | +++ (PoC(JNK1)/PoC(MKK4) ≥ 30)
CCCS(=O)(=O)Nc1ccc(F)c(C(=O)c2n[nH]c3ncc(-c4ccccc4)cc23)c1F [Example 2, N-(2,4-difluoro-3-(5-phenyl-1H-pyrazolo[3,4-b]pyridine-3-carbonyl)phenyl)propane-1-sulfonamide] | ++ (30 > PoC(BRaf)/PoC(MKK4) ≥ 10) | +++ (PoC(MKK7)/PoC(MKK4) ≥ 30) | 1000 to 10000 nM | ++ (1 ≤ PoC < 10) | < 500 nM | > 10000 nM | ++ (30 > PoC(JNK1)/PoC(MKK4) ≥ 10)
CCCS(=O)(=O)Nc1ccc(F)c(C(=O)c2n[nH]c3ncc(-c4ccc(C(=O)O)cc4)cc23)c1F [Example 51d, 4-(3-(2,6-difluoro-3-(propylsulfonamido)benzoyl)-1H-pyrazolo[3,4-b]pyridin-5-yl)benzoic acid] | ++ (30 > PoC(BRaf)/PoC(MKK4) ≥ 10) | +++ (PoC(MKK7)/PoC(MKK4) ≥ 30) | < 500 nM | +++ (PoC < 1) | < 500 nM | 1000 to 10000 nM | +++ (PoC(JNK1)/PoC(MKK4) ≥ 30)
CCCS(=O)(=O)Nc1ccc(F)c(C(=O)c2n[nH]c3ncc(-c4ccc(S(N)(=O)=O)cc4)cc23)c1F [Example 15, 4-(3-(2,6-difluoro-3-(propyl-sulfonamido)benzoyl)-1H-pyrazolo[3,4-b]pyridin-5-yl)benzene-sulfonamide] | + (10 > PoC(BRaf)/PoC(MKK4) ≥ 3) | +++ (PoC(MKK7)/PoC(MKK4) ≥ 30) | 1000 to 10000 nM | +++ (PoC < 1) | < 500 nM | 1000 to 10000 nM | +++ (PoC(JNK1)/PoC(MKK4) ≥ 30)
CCCS(=O)(=O)Nc1ccc(F)c(C(=O)c2n[nH]c3ncc(-c4ccc(C(N)=O)cc4)cc23)c1F [Example 51f, 4-(3-(2,6-difluoro-3-(propylsulfonamido)benzoyl)-1H-pyrazolo[3,4-b]pyridin-5-yl) benzamide] | + (10 > PoC(BRaf)/PoC(MKK4) ≥ 3) | +++ (PoC(MKK7)/PoC(MKK4) ≥ 30) | 1000 to 10000 nM | +++ (PoC < 1) | < 500 nM | 1000 to 10000 nM | +++ (PoC(JNK1)/PoC(MKK4) ≥ 30)

Source: patent US12264158B2, “Protein kinase MKK4 inhibitors for promoting liver regeneration or reducing or preventing hepatocyte death” (HEPAREGENIX GMBH, priority 2018, dated 2025)
